{"source": "patent US7452717B2", "about": "“Compositions and methods for sensitizing and inhibiting growth of human tumor cells” (St. Jude Children's Research Hospital, priority 1998, dated 2008)", "key": {"human liver CE (hCE1)": {"biological_target": "T1, human liver CE (hCE1) (Homo sapiens, UniProt P23141)", "T1 construct": "expressed in transfected cells; host or cells: COS-7 (sonicates of transiently transfected cells)", "T1 sequence (P23141 18-567)": "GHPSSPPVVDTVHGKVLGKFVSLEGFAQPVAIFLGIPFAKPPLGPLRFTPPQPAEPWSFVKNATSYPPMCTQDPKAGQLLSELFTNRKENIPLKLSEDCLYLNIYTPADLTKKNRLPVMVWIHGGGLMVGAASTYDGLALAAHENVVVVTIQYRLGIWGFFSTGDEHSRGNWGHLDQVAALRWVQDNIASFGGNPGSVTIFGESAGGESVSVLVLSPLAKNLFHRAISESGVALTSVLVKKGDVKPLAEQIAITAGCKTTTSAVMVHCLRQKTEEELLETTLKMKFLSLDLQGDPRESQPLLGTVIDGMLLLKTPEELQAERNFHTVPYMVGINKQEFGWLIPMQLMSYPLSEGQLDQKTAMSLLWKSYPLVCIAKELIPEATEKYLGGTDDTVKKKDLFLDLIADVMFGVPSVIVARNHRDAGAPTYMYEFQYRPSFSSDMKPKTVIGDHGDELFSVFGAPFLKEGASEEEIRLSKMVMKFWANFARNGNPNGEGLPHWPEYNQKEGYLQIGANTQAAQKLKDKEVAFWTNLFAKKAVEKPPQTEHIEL", "assay": "Esterase assay (o-NPA), COS-7 cells expressing hCE1", "type": "biochemical", "settings": "plasmid pCIHUMCAR, enzyme hCE1", "method": "(§1) Esterase activity was determined in whole tissue sonicates using a spectrophotometric assay with o-nitrophenol acetate as a substrate (Potter et al. 1998 Cancer Res. 52:2646-2651; Beaufay et al. 1974 J. Cell Biol. 61:188-200). Protein concentrations were calculated using BioRad protein assay reagent (Hercules, Calif.) with bovine serum albumin as a standard. Enzyme activities were calculated as μmoles of o-nitrophenol produced per minute per mg of total protein."}, "rabbit liver CE": {"biological_target": "T2, rabbit liver CE (Oryctolagus cuniculus, UniProt P12337)", "T2 sequence (P12337 19-565)": "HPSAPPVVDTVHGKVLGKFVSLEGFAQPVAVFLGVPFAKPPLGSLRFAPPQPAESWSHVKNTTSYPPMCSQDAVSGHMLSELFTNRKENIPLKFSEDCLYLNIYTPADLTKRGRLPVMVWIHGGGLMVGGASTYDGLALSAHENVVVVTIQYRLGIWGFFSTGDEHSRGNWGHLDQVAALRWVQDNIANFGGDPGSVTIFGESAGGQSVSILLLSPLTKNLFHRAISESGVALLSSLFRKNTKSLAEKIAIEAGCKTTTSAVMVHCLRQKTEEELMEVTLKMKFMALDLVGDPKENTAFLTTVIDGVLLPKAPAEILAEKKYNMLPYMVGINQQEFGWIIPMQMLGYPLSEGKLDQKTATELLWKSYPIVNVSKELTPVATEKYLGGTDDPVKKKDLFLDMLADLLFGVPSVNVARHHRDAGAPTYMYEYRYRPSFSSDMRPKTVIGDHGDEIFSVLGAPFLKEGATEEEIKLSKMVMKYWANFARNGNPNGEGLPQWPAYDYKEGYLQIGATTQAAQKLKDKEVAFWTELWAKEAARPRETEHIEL", "assay": "Esterase assay (o-NPA), COS-7 cells expressing rabbit CE", "type": "biochemical", "design": "To amplify a full length rabbit CE cDNA, oligonucleotide primers RabNTERM; expressed in transfected cells; host or cells: COS-7 (sonicates of transiently transfected cells)", "settings": "plasmid pCIRAB, enzyme rabbit", "method": "as §1"}, "[1]": {"test_system": "COS-7 cells (pCIneo, no enzyme)", "assay": "Esterase assay (o-NPA), COS-7 cells transfected with pCIneo", "type": "biochemical, monkey", "settings": "plasmid pCIneo", "method": "as §1"}, "[2]": {"test_system": "CE activity in human biopsy whole tissue sonicates", "assay": "Esterase assay (o-NPA conversion) with human biopsy extracts", "type": "biochemical", "method": "Using human intestinal mucosal biopsy tissue, the conversion of o-NPA to nitrophenol by whole tissue sonicates was monitored. CE activity was identified in both small intestine and colon samples, with activity levels in small intestine being much less than the levels seen with human liver.\nBiopsies of human intestine were obtained from the Cooperative Human Tissue Network (Birmingham, Ala.). The samples were ground under liquid nitrogen and the resulting powder sonicated in 50 mM Hepes, pH 7.4, on ice.\nas §1"}, "[3]": {"biological_target": "T3, human intestinal CE (hiCE) (Homo sapiens, UniProt O00748)", "T3 construct": "expressed in transfected cells; host or cells: COS-7 (sonicates of transiently transfected cells)", "T3 sequence (O00748 27-559)": "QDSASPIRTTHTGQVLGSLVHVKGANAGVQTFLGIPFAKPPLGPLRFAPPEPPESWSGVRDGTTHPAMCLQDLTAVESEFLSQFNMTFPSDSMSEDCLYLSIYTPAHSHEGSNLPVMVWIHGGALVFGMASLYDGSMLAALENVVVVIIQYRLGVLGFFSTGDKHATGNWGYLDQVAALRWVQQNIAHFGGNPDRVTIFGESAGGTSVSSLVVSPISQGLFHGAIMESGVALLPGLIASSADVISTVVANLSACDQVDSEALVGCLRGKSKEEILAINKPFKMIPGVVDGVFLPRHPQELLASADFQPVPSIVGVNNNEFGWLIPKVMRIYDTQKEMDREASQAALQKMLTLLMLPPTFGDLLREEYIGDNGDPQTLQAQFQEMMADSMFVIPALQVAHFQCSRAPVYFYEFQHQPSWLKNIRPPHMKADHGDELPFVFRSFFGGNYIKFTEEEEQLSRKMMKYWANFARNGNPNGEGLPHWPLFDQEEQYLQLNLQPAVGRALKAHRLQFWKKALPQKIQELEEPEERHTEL", "assay": "Esterase assay (o-NPA), COS-7 cells expressing hiCE", "type": "biochemical", "settings": "plasmid pCIhiCE, media", "method": "as §1"}}, "note": "Several values for one entry are separate records, joined by “and”; a condition that tells them apart may be missing. Identical values can stand only once."}
{"molecule": "CC(=O)Oc1ccccc1[N+](=O)[O-]", "note": "[o-NPA, o-nitrophenyl acetate]", "values": [{"measurement": "o-NPA Conversion", "setting": "human liver CE (hCE1)", "value": "4780.3 ± 279.8", "unit": "µmol/min/mg"}, {"measurement": "o-NPA Conversion", "setting": "rabbit liver CE", "value": "2755.5 ± 271.2", "unit": "µmol/min/mg"}, {"measurement": "o-NPA Conversion", "setting": "[1]; enzyme none", "value": "6.7 ± 0.15", "unit": "µmol/min/mg"}, {"measurement": "o-NPA Conversion", "setting": "[1]; media", "value": "13.3 ± 2.7", "unit": "µmol/min/mg"}, {"measurement": "o-NPA Conversion", "setting": "[2]; human colon biopsy extract", "value": "46.5 ± 1.2 µmol/min/mg and 86.3 ± 5.2 µmol/min/mg and 75.9 ± 2.6 µmol/min/mg"}, {"measurement": "o-NPA Conversion", "setting": "[2]; human small intestine biopsy extract", "value": "113.0 ± 9.2 µmol/min/mg and 67.6 ± 4.1 µmol/min/mg and 61.0 ± 2.0 µmol/min/mg"}, {"measurement": "o-NPA Conversion", "setting": "[3]", "value": "30.9 ± 2.8", "unit": "µmol/min/mg"}]}
